# Data taken from US20230331655A1, “HYDROXYN[…] AND METHODS OF USE THEREOF” (UNIVERSITY OF MARYLAND, BALTIMORE, priority 2020, published 2023).
# “Also recorded” adds a separate entry of the source.
# Assays:
# Type in all cases: in vivo, mouse
# Male C57BL/6J mice [1] = experiment: sub-effective dose morphine conditioned-place preference after chronic social defeat stress; details: single 10 mg/kg i.p. before conditioning, morphine 0.25 mg/kg
# Excerpt: (§1) Animals: Male C57BL/6J mice (8 weeks old, Jackson laboratories) were kept in a temperature and humidity-controlled environment and maintained in a 12:12 hr light/dark cycle (lights on at 7:00 AM). Mice were singly-housed for all the studies due to increased aggression following opioid administration and were randomly assigned to treatment groups.
# (§2) Drugs: (2R,6R)-HNK hydrochloride was synthesized and characterized. Absolute and relative stereochemistry for (2R,6R)-HNK was confirmed by small molecule x-ray crystallography. For the intraperitoneal injections, drugs were dissolved in 0.9% saline and given in a volume of 5 ml/kg.
# Social defeats: Socially defeated mice underwent a 10-day chronic social defeat stress paradigm. […]
# Social interaction test: Following the social defeats, on day 11, test mice were screened for susceptibility in a social interaction/avoidance choice test. […] The time spent interacting (nose within close proximity of the cage) with the “stranger” mouse versus the empty cage was analyzed using TopScan video tracking software (CleverSys, Reston, Virginia). […]
# Sucrose preference: Following the social interaction test, mice were assessed for sucrose preference in their home cages. […] Sucrose preference was measured (day 12) and were assigned to two groups: resilient (sucrose preference >70%) and susceptible (sucrose preference <55%). […]
# Male C57BL/6J mice [2] = experiment: high-dose morphine conditioned-place preference in stress-naive mice; details: single 10 mg/kg i.p., morphine 5 mg/kg
# Excerpt: as §1, §2
# Morphine conditioned-place preference: The conditioned-place preference (CPP) apparatus consisted of a rectangular three-chambered box (40 cm length×30 cm width×35 cm height; Stoelting Co., Wood Dale, IL, USA) comprised of two equal sized end-chambers (20 cm×18 cm×35 cm) and a central chamber (20 cm×10 cm×35 cm). […] The CPP protocol consisted of a pre-conditioning phase, eight conditioning sessions and a post-conditioning test. […]
# Conditioning phase (Days 3-6): During the morning sessions of the conditioning phase, saline was administered and mice were placed in their non-opioid assigned compartment for 40 min. […] Time spent in each compartment was measured during both pre- and post-conditioning sessions using TopScan v2.0 (CleverSys, Inc, VA, USA).
# Male C57BL/6J mice [3] = experiment: naloxone-precipitated morphine withdrawal conditioned-place aversion; details: 10 mg/kg i.p. 10 min before naloxone 1 mg/kg; morphine 10 mg/kg
# Excerpt: as §1, §2
# Precipitated morphine place aversion: The conditioned-place aversion (CPA) protocol was performed in a rectangular three-chambered box (40 cm length×30 cm width×35 cm height; Stoelting Co., Wood Dale, IL, USA) comprised of two equal sized end-chambers (20 cm×18 cm×35 cm) and a central chamber (20 cm×10 cm×35 cm). […] The CPA protocol consisted of a pre-conditioning phase, four saline/morphine administration days in their home cages, a conditioning phase following morphine precipitated withdrawal in the CPA apparatus and a post-conditioning test. […] Time spent in each compartment was measured during both pre- and post-conditioning sessions using TopScan v2.0 (CleverSys, Inc, VA, USA).
structure (smiles),measurement,setting,value
"N[C@@]1(c2ccccc2Cl)CCC[C@@H](O)C1=O [(2R,6R)-HNK, (2R,6R)-hydroxynorketamine]",morphine-induced place preference (conditioning to sub-effective dose of morphine),Male C57BL/6J mice [1]; stress susceptible mice,prevents conditioning; also recorded: prevented morphine-induced place preference
same,morphine-induced place preference (conditioning to sub-effective dose of morphine),Male C57BL/6J mice [1]; stress-resilient mice,no significant effect
same,development of high-dose morphine CPP,Male C57BL/6J mice [2],did not prevent
same,naloxone-induced conditioned-place aversion in morphine-dependent mice,Male C57BL/6J mice [3],prevents conditioned-place aversion; also recorded: completely prevented
